Laboratory results: patent publication US7470711B2, “Piperidinyl substituted cyclohexane-1,4-diamines” (Janssen Pharmaceutica N.V., priority 2005, dated 2008)
Where a name gives a salt, the structure may show the parent alone. Read-outs that look alike come from different tables or passages of the source.

How the values were obtained:
α1d-AR = molecular target: T1, α1d-AR (Homo sapiens, UniProt P25100); assay: α1-Adrenergic receptor radio-ligand binding assay, α1d subtype
T1 construct: expressed in transfected cells; host or cells: COS-7 cells (membranes)
T1 sequence (P25100 1-572): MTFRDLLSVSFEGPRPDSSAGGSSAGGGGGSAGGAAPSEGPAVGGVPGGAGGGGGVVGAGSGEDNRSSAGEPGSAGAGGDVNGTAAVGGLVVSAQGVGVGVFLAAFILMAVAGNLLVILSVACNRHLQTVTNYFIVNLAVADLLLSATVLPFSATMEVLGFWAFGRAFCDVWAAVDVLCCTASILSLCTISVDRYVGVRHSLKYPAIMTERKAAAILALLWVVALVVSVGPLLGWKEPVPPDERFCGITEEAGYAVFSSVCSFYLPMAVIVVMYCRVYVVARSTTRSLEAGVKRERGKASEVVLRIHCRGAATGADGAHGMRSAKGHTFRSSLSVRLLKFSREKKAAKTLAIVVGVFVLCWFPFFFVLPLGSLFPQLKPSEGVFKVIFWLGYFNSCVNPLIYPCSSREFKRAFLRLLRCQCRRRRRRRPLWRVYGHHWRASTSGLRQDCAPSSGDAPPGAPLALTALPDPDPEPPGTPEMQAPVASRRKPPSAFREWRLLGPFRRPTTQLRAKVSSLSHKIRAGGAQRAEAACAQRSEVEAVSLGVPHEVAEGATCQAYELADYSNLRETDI
Description: (§1) Membranes were prepared from COS-7 cells (African Green monkey kidney SV40-transformed cells) that had been transfected with one of the three α1-AR subtypes (Genbank accession number for the α1a subtype: AF013261; Genbank accession number for the α1b subtype: NM000679; Genbank accession number for the α1d subtype: NM000678) using the following method: COS cells from ten 100 mm tissue culture plates were scraped into a 5 mL volume of TE (a mixture of 50 mM Tris-HCl, 5 mM EDTA, pH 7.4). […] The disrupted cells were centrifuged at 1000×g for 10 min at 4° C. Supernatants were centrifuged at 34,500×g for 20 min at 4° C. The membrane pellets were suspended in a 2 mL volume of TNE (a mixture of 50 mM Tris-HCl, 5 mM EDTA and 150 mM NaCl at pH 7.4). An aliquot of the membrane suspension was stored at −70° C. until use. The protein concentration was determined using the BioRad “DC” protein assay kit following membrane solubilization with Triton X-100.
(§2) Triplicate determinations of radio-ligand binding in the presence of increasing concentrations of testing compound were made. The reagents were added to 96-well polypropylene plate wells. […] The plate was incubated at rt for 1 hr. The contents of the wells were filtered through a glass filter (type C) (GF/C) membrane Unifilter plate (Packard Instruments) using the Packard Filtermate cell harvester. The filter plates were dried in a vacuum oven for 30 min at 40° C. 25 μL Microscint 20 liquid scintillation fluid (Packard Instuments) was added to each well. The radioactive content was analyzed in the TopCount microplate scintillation counter (Packard Instruments).

α1a-AR = molecular target: T2, α1a-AR (Homo sapiens, UniProt P35348); assay: α1-Adrenergic receptor radio-ligand binding assay, α1a subtype
T2 construct: expressed in transfected cells; host or cells: COS-7 cells (membranes)
T2 sequence (P35348 1-455 isoform P35348-4): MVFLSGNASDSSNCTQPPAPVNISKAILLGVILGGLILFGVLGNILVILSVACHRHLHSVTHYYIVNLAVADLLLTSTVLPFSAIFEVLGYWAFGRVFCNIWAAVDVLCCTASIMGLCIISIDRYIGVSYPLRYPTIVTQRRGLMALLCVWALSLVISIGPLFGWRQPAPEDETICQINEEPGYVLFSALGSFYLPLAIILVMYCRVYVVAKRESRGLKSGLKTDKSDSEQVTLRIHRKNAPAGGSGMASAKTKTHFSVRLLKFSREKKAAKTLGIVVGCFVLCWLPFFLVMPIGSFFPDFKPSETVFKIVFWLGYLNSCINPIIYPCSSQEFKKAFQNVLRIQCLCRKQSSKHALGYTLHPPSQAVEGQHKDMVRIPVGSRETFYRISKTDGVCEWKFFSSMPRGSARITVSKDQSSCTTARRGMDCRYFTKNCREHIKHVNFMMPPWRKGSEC
Description: as §1, §2

α1b-AR = molecular target: T3, α1b-AR (Homo sapiens, UniProt P35368); assay: α1-Adrenergic receptor radio-ligand binding assay, α1b subtype
T3 construct: expressed in transfected cells; host or cells: COS-7 cells (membranes)
T3 sequence (P35368 1-520): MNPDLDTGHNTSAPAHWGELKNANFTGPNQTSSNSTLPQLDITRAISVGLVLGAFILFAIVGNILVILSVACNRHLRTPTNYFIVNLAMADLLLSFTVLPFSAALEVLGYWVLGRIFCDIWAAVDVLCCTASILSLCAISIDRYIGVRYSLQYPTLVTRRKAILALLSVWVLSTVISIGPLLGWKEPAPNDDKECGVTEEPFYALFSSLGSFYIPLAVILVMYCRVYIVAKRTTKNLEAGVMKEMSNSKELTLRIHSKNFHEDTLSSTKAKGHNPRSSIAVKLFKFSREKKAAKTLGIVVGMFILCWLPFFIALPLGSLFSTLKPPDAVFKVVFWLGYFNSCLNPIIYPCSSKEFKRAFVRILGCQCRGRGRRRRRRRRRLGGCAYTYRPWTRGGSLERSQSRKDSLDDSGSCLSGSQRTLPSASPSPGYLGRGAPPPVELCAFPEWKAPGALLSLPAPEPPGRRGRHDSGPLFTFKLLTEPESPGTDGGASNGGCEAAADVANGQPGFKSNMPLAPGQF
Description: as §1, §2

[1] = 125I-HEAT, membranes of COS-7 cells transfected with α1b subtype, rt 1 hr, read-out: Receptor Binding, Ki α1b-AR
[2] = 125I-HEAT, membranes of COS-7 cells transfected with α1d subtype, rt 1 hr, read-out: Receptor Binding, Ki α1d-AR
[3] = 125I-HEAT, membranes of COS-7 cells transfected with α1a subtype, rt 1 hr, read-out: Receptor Binding, Ki α1a-AR

COc1ccc(S(=O)(=O)N[C@H]2CC[C@@H](N3CCC(c4ccccc4OC(C)C)CC3)CC2)cc1OC (as salt: fumarate) [Cpd 1, N-cis-{4-[4-(2-isopropoxy-phenyl)-piperidin-1-yl]-cyclohexyl}-3,4-dimethoxy-benzenesulfonamide]
melting point: 221 °C

CC(C)Oc1ccccc1C1CCN([C@H]2CC[C@H](NS(=O)(=O)c3ccc(F)c(F)c3)CC2)CC1 [Cpd 4, 3,4-difluoro-N-trans-{4-[4-(2-isopropoxy-phenyl)-piperidin-1-yl]-cyclohexyl}-benzenesulfonamide]
Ki (α1d-AR): 88.6 nM | melting point: 239 °C

O=S(=O)(N[C@H]1CC[C@H](N2CCC(c3ccccc3OCC(F)(F)F)CC2)CC1)c1cc(Cl)ccc1F [Cpd 20, 5-chloro-2-fluoro-N-trans-(4-{4-[2-(2,2,2-trifluoro-ethoxy)-phenyl]-piperidin-1-yl}-cyclohexyl)-benzenesulfonamide]
Ki (α1a-AR): 4.7 nM | Ki (α1b-AR; [1]): 786 nM | Ki (α1d-AR; [2]): 43.9 nM | melting point: 227 °C

COc1ccc(S(=O)(=O)N[C@H]2CC[C@@H](N3CCC(c4ccccc4OCC(F)(F)F)CC3)CC2)cc1OC (as salt: fumarate) [Cpd 5, 3,4-dimethoxy-N-cis-(4-{4-[2-(2,2,2-trifluoro-ethoxy)-phenyl]-piperidin-1-yl}-cyclohexyl)-benzenesulfonamide]
melting point: 201 °C (dec.)

COc1ccc(Cl)cc1S(=O)(=O)N[C@H]1CC[C@H](N2CCC(c3ccccc3OCC(F)(F)F)CC2)CC1 [Cpd 18, 5-chloro-2-methoxy-N-trans-(4-{4-[2-(2,2,2-trifluoro-ethoxy)-phenyl]-piperidin-1-yl}-cyclohexyl)-benzenesulfonamide]
Ki (α1a-AR): 10.4 nM | Ki (α1b-AR; [1]): 703 nM | Ki (α1d-AR; [2]): 35.9 nM | melting point: 197 °C

O=S(=O)(N[C@H]1CC[C@H](N2CCC(c3ccccc3OCC(F)(F)F)CC2)CC1)c1cccc(OC(F)F)c1 [Cpd 24, 3-difluoromethoxy-N-trans-(4-{4-[2-(2,2,2-trifluoro-ethoxy)-phenyl]-piperidin-1-yl}-cyclohexyl)-benzenesulfonamide]
Ki (α1a-AR; [3]): 12 nM | Ki (α1b-AR; [1]): 355 nM | Ki (α1d-AR; [2]): 70 nM | melting point: 169 °C

COc1ccc(Cl)cc1S(=O)(=O)N[C@H]1CC[C@@H](N2CCC(c3ccccc3OCC(F)(F)F)CC2)CC1 [Cpd 17, 5-chloro-2-methoxy-N-cis-(4-{4-[2-(2,2,2-trifluoro-ethoxy)-phenyl]-piperidin-1-yl}-cyclohexyl)-benzenesulfonamide]
Ki (α1a-AR; [3]): 6.2 nM | Ki (α1b-AR; [1]): 216 nM | Ki (α1d-AR): 1.5 nM | melting point: 200 °C

O=S(=O)(N[C@H]1CC[C@H](N2CCC(c3ccccc3OCC(F)(F)F)CC2)CC1)c1ccc2c(c1)OCCO2 [Cpd 14, 2,3-dihydro-benzo[1,4]dioxine-6-sulfonic acid trans-(4-{4-[2-(2,2,2-trifluoro-ethoxy)-phenyl]-piperidin-1-yl}-cyclohexyl)-amide]
Ki (α1a-AR): 2.2 nM | Ki (α1b-AR): 90.6 nM | Ki (α1d-AR): 26 nM | melting point: 146 °C

COc1ccc(S(=O)(=O)N[C@H]2CC[C@@H](N3CCC(c4ccccc4OCCF)CC3)CC2)cc1OC [Cpd 27, N-cis-(4-{4-[2-(2-fluoro-ethoxy)-phenyl]-piperidin-1-yl}-cyclohexyl)-3,4-dimethoxy-benzenesulfonamide]
Ki (α1a-AR; [3]): 10.9 nM | Ki (α1b-AR; [1]): 354 nM | Ki (α1d-AR; [2]): 8.8 nM | melting point: 225 °C

CC(C)Oc1ccccc1C1CCN([C@H]2CC[C@@H](NS(=O)(=O)c3ccc(F)c(F)c3)CC2)CC1 [Cpd 3, 3,4-difluoro-N-cis-{4-[4-(2-isopropoxy-phenyl)-piperidin-1-yl]-cyclohexyl}-benzenesulfonamide]
Ki (α1a-AR; [3]): 3 nM | Ki (α1b-AR; [1]): 470 nM | Ki (α1d-AR; [2]): 7.3 nM | melting point: 176 °C

O=S(=O)(N[C@H]1CC[C@@H](N2CCC(c3ccccc3OCC(F)(F)F)CC2)CC1)c1ccc2c(c1)OCCO2 [Cpd 13, 2,3-dihydro-benzo[1,4]dioxine-6-sulfonic acid cis-(4-{4-[2-(2,2,2-trifluoro-ethoxy)-phenyl]-piperidin-1-yl}-cyclohexyl)-amide]
Ki (α1a-AR): 4 nM | Ki (α1b-AR): 92 nM | Ki (α1d-AR): 3 nM | melting point: 190 °C

O=S(=O)(N[C@H]1CC[C@@H](N2CCC(c3ccccc3OCC(F)(F)F)CC2)CC1)c1cc(Cl)ccc1F [Cpd 19, 5-chloro-2-fluoro-N-cis-(4-{4-[2-(2,2,2-trifluoro-ethoxy)-phenyl]-piperidin-1-yl}-cyclohexyl)-benzenesulfonamide]
Ki (α1a-AR): 5.8 nM | Ki (α1b-AR; [1]): 181 nM | Ki (α1d-AR; [2]): 0.97 nM | melting point: 204 °C

O=S(=O)(N[C@H]1CC[C@H](N2CCC(c3ccccc3OCC(F)(F)F)CC2)CC1)c1ccc(OC(F)F)cc1 [Cpd 26, 4-difluoromethoxy-N-trans-(4-{4-[2-(2,2,2-trifluoro-ethoxy)-phenyl]-piperidin-1-yl}-cyclohexyl)-benzenesulfonamide]
Ki (α1a-AR): 37.5 nM | Ki (α1b-AR; [1]): 302 nM | Ki (α1d-AR; [2]): 85.7 nM | melting point: 155 °C

O=S(=O)(N[C@H]1CC[C@@H](N2CCC(c3ccccc3OCC(F)(F)F)CC2)CC1)c1cccc(OC(F)F)c1 [Cpd 23, 3-difluoromethoxy-N-cis-(4-{4-[2-(2,2,2-trifluoro-ethoxy)-phenyl]-piperidin-1-yl}-cyclohexyl)-benzenesulfonamide]
Ki (α1a-AR; [3]): 7 nM | Ki (α1b-AR; [1]): 261 nM | Ki (α1d-AR; [2]): 5.9 nM | melting point: 105 °C

COc1ccc(S(=O)(=O)N[C@H]2CC[C@@H](N3CCC(c4ccccc4OCC(F)F)CC3)CC2)cc1OC [Cpd 29, N-cis-(4-{4-[2-(2,2-difluoro-ethoxy)-phenyl]-piperidin-1-yl}-cyclohexyl)-3,4-dimethoxy-benzenesulfonamide]
Ki (α1a-AR; [3]): 12 nM | Ki (α1b-AR; [1]): 300 nM | Ki (α1d-AR; [2]): 4.1 nM | melting point: 219 °C

COc1ccc(S(=O)(=O)N[C@H]2CC[C@H](N3CCC(c4ccccc4OCCF)CC3)CC2)cc1OC [Cpd 28, N-trans-(4-{4-[2-(2-fluoro-ethoxy)-phenyl]-piperidin-1-yl}-cyclohexyl)-3,4-dimethoxy-benzenesulfonamide]
Ki (α1a-AR; [3]): 68.8 nM | Ki (α1b-AR; [1]): 4400 nM | Ki (α1d-AR; [2]): 48.6 nM | melting point: 142 °C
